Where a SMILES comes first, the peptide text is derived from it.
What was measured:
MR766 ZIKV strain = experiment: ZIKV MR766 infection of IFNAR KO mice, morbidity; type: in vivo, mouse; conditions: MR766, peptide-treated vs control group
Procedure: To assess morbidity, we switched to IFNAR KO mice and infected them with the MR766 ZIKV strain.
All mouse studies were approved by the IACUC of Emory University. C57BL/6 mice were purchased from The Jackson Laboratory. All mice were maintained in specified pathogen-free in accordance with the institutional guidelines of Emory University’s Animal Care and Use Committee. All control and experimental mice were age- and sex-matched. For viral titer assessment, Wild-type C57BL/6 J mice were injected with 2 mg of an anti-Ifnar1 blocking antibody (MAR1-5A3) by the intraperitoneal route 24hrs prior to infection. Mice were anesthetized with isoflurane and inoculated by the subcutaneous route into both rear footpads with 5 × 10^4 PFU of ZIKV PRVABC59 (1 × 10^5 PFU total inoculum per mouse) in a 20µL inoculum diluted in Hanks balanced salt solution (HBSS) supplemented with 1% heat-inactivated FBS. For analysis of morbidity by ZIKV viral infection, we infected 5- to 6-week-old IFNAR KO mice with ZIKV MR766 (100 PFU total inoculum per mouse). Mice were monitored daily for morbidity and mortality.

ZIKV = experiment: Post-infection treatment of ZIKV-infected Vero cells, FFU assay of supernatants; type: cell-based, Zika virus; conditions: 40 µM peptide added after infection, FFU of supernatant
Procedure: Next, we determined whether the observed Yodha peptide-induced decrease in viral titers was due to blocked viral entry. We reasoned that if the peptide directly kills or disrupts the envelope structure of ZIKV, this would prevent virus entry. To test this, we designed an experiment to measure virus entry, by allowing ZIKV to bind cells at 4 °C for 1 h followed by shifting the cells to 37 °C to permit virus entry (Fig. 2A). It has been shown that DENV2 entry occurs within 25 min by early endosome trafficking. Briefly, we exposed ZIKV to Yodha peptide and then allowed the virus to infect Vero cells for 30 min. We then measured viral RNA within the Vero cells by quantitative Real Time-PCR (qRT-PCR) (Fig. 2B). […] Next, we visualized ZIKV entry or lack thereof by immunofluorescence using antibodies against pan flavivirus E protein. […] We collected culture supernatants at 3, 24, 48, and 72 h after ZIKV infection to quantitate ZIKV by FFU assay (Fig. 2E). ZIKV was not detected at 3 h post-infection in both OVA- or Yodha-treated cells. […]
Figure 2 Yodha peptide inhibits ZIKV entry into cells. […] (B) ZIKV was treated with 200 µM of Yodha or control OVA peptide for 30 min and then used to infect Vero cells at a MOI of 0.5 and expression of ZIKV RNA was determined by quantitative RT-PCR (qRT-PCR). […] Error bars indicate the SEM of four technical replicates statistical significance was assessed by a 2-way ANOVA.

SMILES: CC[C@H](C)[C@H](NC(=O)[C@@H](NC(=O)CNC(=O)[C@H](CC(C)C)NC(=O)[C@H](Cc1ccccc1)NC(=O)[C@H](Cc1ccccc1)NC(=O)[C@H](CC(C)C)NC(=O)[C@H](CC(C)C)NC(=O)[C@H](CC(C)C)NC(=O)[C@H](CCSC)NC(=O)[C@@H](N)CO)[C@@H](C)O)C(=O)N[C@@H](CO)C(=O)N[C@@H](CC(C)C)C(=O)N[C@@H](CO)C(=O)N[C@@H](CC(C)C)C(=O)N[C@@H](CS)C(=O)N[C@@H](CCC(N)=O)C(=O)N[C@@H](CC(=O)O)C(=O)N[C@@H](CC(=O)O)C(=O)N[C@@H](CCC(N)=O)C(=O)N[C@@H](CCC(=O)O)C(=O)N[C@@H](CCCNC(=N)N)C(=O)N[C@@H](CS)C(=O)O [Yodha] (H-SMLLLFFLGTISLSLCQDDQERC-OH; N-terminus and C-terminus assumed)
- weight changes (MR766 ZIKV strain): did not observe any differences
- survival (MR766 ZIKV strain; data not shown): did not observe any differences
- reduction in ZIKV production (ZIKV; 48 h post-infection): 60–70%
- reduction in ZIKV production (ZIKV; 72 h post-infection): 60–70%

Reference: article PMC7804942, “The amphibian peptide Yodha is virucidal for Zika and dengue viruses” (Scientific Reports, 2021)
